According to patent US20240108753A1, “NUCLEIC ACID DELIVERY” (NUNTIUS THERAPEUTICS LIMITED, priority 2021, published 2024):

Assay: Hydrodynamic size, polydispersity index and zeta potential of dendrimer, lipid and mRNA complexes
Assay type: physicochemical
Conditions: DOTMA/DOPE w/w 10:1 to mRNA; for Hydrodynamic size: dendrimer, lipid and mRNA complexes
Procedure: The hydrodynamic size, polydispersity index and Zeta potential was determined for a set of the dendrimers disclosed in Tables 1 and 2.

Row | Substance | Polydispersity Index (PDI) (N:P 0.16:1) | Zeta Potential (N:P 0.16:1) [mV] | Polydispersity Index (PDI) (N:P 8:1) | Zeta Potential (N:P 8:1) [mV] | Hydrodynamic size (N:P 0.16:1) [nm] | Hydrodynamic size (N:P 8:1) [nm]
1 | (LR)8(KRL)4(KRL)2KYM-NH2 [YMG1,2-RL, 3-LR] | 0.116 | 35 | 0.213 | 56 | 117 | 73
2 | (LRLR)2KGSC-NH2 [G1-LRLR] | 0.264 | 40 | 0.581 | 49 | 122 | 250
3 | (LRLR)4(KLRLR)2KGSC-NH2 [G1,2-LRLR] | 0.181 | 41 | 0.189 | 53 | 130 | 92
4 | (LRLR)8(KLRLR)4(KLRLR)2KGSC-NH2 [G1,2,3-LRLR] | 0.133 | 45 | 0.287 | 50 | 130 | 80
5 | (MR)8(KRC)4(KRC)2KGSC-NH2 [G1-RC, 2-RC, 3-MR] | 0.148 | 43 | 0.19 | 56 | 121 | 87
6 | (QR)8(KRT)4(KRY)2KGSC-NH2 [G1-RY, 2-RT, 3-QR] | 0.16 | 42 | 0.178 | 52 | 126 | 95
7 | (R)8(KR)4(KR)2KRHC-NH2 [RHCG1,2,3-R] | 0.173 | 43 | 0.396 | 62 | 125 | 70
8 | (R)8(KRL)4(KRLR)2KRHC-NH2 [RHCG1-RLR, 2-RL, 3-R] | 0.219 | 36 | 0.429 | 59 | 119 | 83
9 | (RL)8(KLR)4(KLR)2KGSC-NH2 [G1,2-LR,3-RL] | 0.144 | 32 | 0.242 | 54 | 137 | 89
10 | (RL)8(KRL)4(KLR)2KGSC-NH2 [G1-LR,2,3-RL] | 0.136 | 41 | 0.417 | 53 | 132 | 80
11 | (RLR)2KRHC-NH2 [RHCG1-RLR] | 0.363 | 41 | 0.766 |  | 105 | 183
12 | (RLR)4(KRLR)2KRHC-NH2 [RHCG1,2-RLR] | 0.154 | 39 | 0.214 |  | 116 | 83
13 | (RLR)8(KRLR)4(KRLR)2KRHC-NH2 [RHCG1,2,3-RLR] | 0.154 | 42 | 0.299 | 56 | 130 | 73
14 | (WR)8(KRM)4(KRF)2KGSC-NH2 [G1-RF, 2-RM, 3-WR] | 0.125 | 41 | 0.277 | 51 | 142 | 80
15 | (YR)8(KRT)4(KRQ)2KGSC-NH2 [G1-RQ, 2-RT, 3-YR] | 0.135 | 41 | 0.409 | 54 | 130 | 100
16 | (lR)8(KrL)4(kRl)2KGSC-NH2 [G1-Rl, 2-rL, 3-lR] | 0.22 | 42 | 0.241 | 56 | 135 | 74
17 | (lr)8(Krl)4(Krl)2Kgsc-NH2 [LK-G1,2-rl, 3-lr] | 0.16 | 45 | 0.251 | 53 | 132 | 74
18 | (lr)8(krl)4(krl)2kgsc-NH2 [D-G1,2-rl, 3-lr] | 0.148 | 43 | 0.246 | 53 | 134 | 73
